A short description of this series: thermal stability: thermal decomposition temperature by thermogravimetry and differential thermal analysis. Type of series: physicochemical. The method, then:
For the absorption characteristic, absorption spectra were measured by using a near infrared photospectrometer. Further, for the thermal stability, the thermal decomposition temperature was measured by thermogravimetry and differential thermal analysis. Further, the solubility in organic solvents such as chloroform or acetone was confirmed.

For one compound, decomposition temperature results are on record in patent US6868215B2, “Dye thin film, production method thereof, optical switch, optical distributor, optical modulator and optical switch array” (Fuji Xerox Co., Ltd., priority 2002, dated 2005).

With `CC(C)CN(CC(C)C)c1cc(O)c2c(c1)OC(=O)/C2=C(/[O-])C1=C2C(O)=CC(=[N+](CC(C)C)CC(C)C)C=C2OC1=O` [compound (1)], the decomposition temperature was 202.7 °C.
